Data as given in the CheMixHub viscosity set.

Assay: xn = mol fraction of the nth substance listed

COC(=O)CC(C)=O + CCCCCCCO
viscosity [mPa·s], 101.33 kPa
Settings	x1 = 0.1016	x1 = 0.2071	x1 = 0.3081	x1 = 0.4096	x1 = 0.5099	x1 = 0.6072	x1 = 0.7071	x1 = 0.8059	x1 = 0.9033
298.15 K	4.066	3.167	2.651	2.278	2.012	1.842	1.663	1.546	1.512
303.15 K	3.465	2.734	2.298	1.981	1.754	1.624	1.485	1.393	1.366
308.15 K	2.97	2.357	1.998	1.733	1.545	1.452	1.337	1.264	1.245

CCOc1ccccc1 + CCCCCCCCCCO
viscosity [mPa·s], 101.3 kPa
Settings	x1 = 0.0999	x1 = 0.2011	x1 = 0.2996	x1 = 0.4003	x1 = 0.5011	x1 = 0.6025	x1 = 0.6998	x1 = 0.8007	x1 = 0.9012
293.15 K	11.33	8.76	6.789	5.22	4.017	3.116	2.486	2.001	1.637
298.15 K	9.33	7.335	5.786	4.5	3.502	2.729	2.188	1.79	1.501
308.15 K	6.907	5.541	4.402	3.45	2.705	2.149	1.724	1.397	1.144
318.15 K	4.863	3.962	3.226	2.613	2.125	1.726	1.414	1.147	0.9405

CCOC(C)=O + O
298.15 K, 101 kPa
Settings	viscosity [mPa·s]
x1 = 0.00139	0.9095
x1 = 0.001837	0.9129
x1 = 0.003766	0.9354
x1 = 0.006372	0.9652
x1 = 0.006895	0.9678
x1 = 0.01022	1.004
x1 = 0.01327	1.036
x1 = 0.8902	0.4495
x1 = 0.9238	0.4395
x1 = 0.9579	0.4312

COC(=O)CC(C)=O + CCCCCCO
viscosity [mPa·s], 101.33 kPa
Settings	x1 = 0.1036	x1 = 0.204	x1 = 0.3064	x1 = 0.4075	x1 = 0.5096	x1 = 0.6081	x1 = 0.7063	x1 = 0.806	x1 = 0.9023
298.15 K	3.185	2.588	2.204	1.947	1.749	1.609	1.521	1.473	1.478
303.15 K	2.76	2.257	1.932	1.72	1.547	1.442	1.364	1.33	1.34
308.15 K	2.409	1.989	1.711	1.527	1.387	1.302	1.238	1.211	1.222

CCOC(C)=O + c1ccccc1
Settings	viscosity [mPa·s]
298 K, 101.3 kPa, x2 = 0.1715	0.478
298 K, 101.3 kPa, x2 = 0.3251	0.489
298 K, 101.3 kPa, x2 = 0.5324	0.507
298 K, 101.3 kPa, x2 = 0.6702	0.534
298 K, 101.3 kPa, x2 = 0.8535	0.57
298.15 K, 101 kPa, x1 = 0.0447	0.588
298.15 K, 101 kPa, x1 = 0.1505	0.556
298.15 K, 101 kPa, x1 = 0.2473	0.5181
298.15 K, 101 kPa, x1 = 0.2482	0.531
298.15 K, 101 kPa, x1 = 0.3049	0.499
298.15 K, 101 kPa, x1 = 0.3312	0.499
298.15 K, 101 kPa, x1 = 0.351	0.507
298.15 K, 101 kPa, x1 = 0.4099	0.483
298.15 K, 101 kPa, x1 = 0.4481	0.489
298.15 K, 101 kPa, x1 = 0.453	0.4803
298.15 K, 101 kPa, x1 = 0.461	0.4782
298.15 K, 101 kPa, x1 = 0.4981	0.48
298.15 K, 101 kPa, x1 = 0.5495	0.472
298.15 K, 101 kPa, x1 = 0.6517	0.458
298.15 K, 101 kPa, x1 = 0.7368	0.4446
298.15 K, 101 kPa, x1 = 0.7524	0.446
298.15 K, 101 kPa, x1 = 0.8551	0.437
298.15 K, 101 kPa, x1 = 0.9445	0.431
298.15 K, 101 kPa, x2 = 0.1725	0.442
298.15 K, 101 kPa, x2 = 0.5441	0.487
298.15 K, 101 kPa, x2 = 0.826	0.551
308.15 K, 101 kPa, x1 = 0.0447	0.515
308.15 K, 101 kPa, x1 = 0.1505	0.492
308.15 K, 101 kPa, x1 = 0.2482	0.472
308.15 K, 101 kPa, x1 = 0.351	0.455
308.15 K, 101 kPa, x1 = 0.4481	0.44
308.15 K, 101 kPa, x1 = 0.4981	0.433
308.15 K, 101 kPa, x1 = 0.5495	0.426
308.15 K, 101 kPa, x1 = 0.6517	0.415
308.15 K, 101 kPa, x1 = 0.7524	0.405
308.15 K, 101 kPa, x1 = 0.8551	0.396
308.15 K, 101 kPa, x1 = 0.9445	0.39
318 K, 101.3 kPa, x2 = 0.1624	0.3894
318 K, 101.3 kPa, x2 = 0.3233	0.3971
318 K, 101.3 kPa, x2 = 0.5251	0.4129
318 K, 101.3 kPa, x2 = 0.671	0.4287
318 K, 101.3 kPa, x2 = 0.8633	0.4505

CCCCCCCCn1cc[n+](C)c1.[Cl-] + CCCCCCCC[n+]1ccn(C)c1.F[B-](F)(F)F
101 kPa
Settings	viscosity [mPa·s]
303.15 K, x1 = 0.2	529.1
308.15 K, x1 = 0.2	381.3
308.15 K, x1 = 0.4	756.6
313.15 K, x1 = 0.4	534.9
318.15 K, x1 = 0.4	386.7
318.15 K, x1 = 0.6	735.5
323.15 K, x1 = 0.6	523

CS(=O)(=O)[O-].C[N+](C)(CCO)CCO + CCCO
Settings	viscosity [mPa·s]
298.15 K, 101.33 kPa, x1 = 0.8978	965

CCOC(C)=O + Cc1ccccc1
viscosity [mPa·s], 101 kPa
Settings	298.15 K	308.15 K
x1 = 0.045	0.538	0.49
x1 = 0.1	0.534	–
x1 = 0.1501	0.514	0.472
x1 = 0.21	0.512	–
x1 = 0.2483	0.495	0.457
x1 = 0.31	0.506	–
x1 = 0.3517	0.478	0.443
x1 = 0.41	0.484	–
x1 = 0.4469	0.464	0.431
x1 = 0.4912	0.459	0.426
x1 = 0.51	0.482	–
x1 = 0.5503	0.452	0.42
x1 = 0.61	0.478	–
x1 = 0.6489	0.443	0.411
x1 = 0.71	0.455	–
x1 = 0.749	0.436	0.403
x1 = 0.81	0.445	–
x1 = 0.8507	0.431	0.395
x1 = 0.9	0.428	–
x1 = 0.9432	0.429	0.39
x2 = 0.1513	0.466	–
x2 = 0.442	0.481	–
x2 = 0.7034	0.509	–

CCOC(C)=O + C1COCCO1
Settings	viscosity [mPa·s]
303.15 K, 101 kPa, x2 = 0.1021	0.435
303.15 K, 101 kPa, x2 = 0.2024	0.466
303.15 K, 101 kPa, x2 = 0.2982	0.505
303.15 K, 101 kPa, x2 = 0.4026	0.553
303.15 K, 101 kPa, x2 = 0.4968	0.602
303.15 K, 101 kPa, x2 = 0.6025	0.668
303.15 K, 101 kPa, x2 = 0.697	0.742
303.15 K, 101 kPa, x2 = 0.8007	0.834
303.15 K, 101 kPa, x2 = 0.9003	0.948
303.15 K, 101.32 kPa, x1 = 0.0451	1.02
303.15 K, 101.32 kPa, x1 = 0.0948	0.948
303.15 K, 101.32 kPa, x1 = 0.1332	0.901
303.15 K, 101.32 kPa, x1 = 0.1779	0.848
303.15 K, 101.32 kPa, x1 = 0.2236	0.802
303.15 K, 101.32 kPa, x1 = 0.3187	0.717
303.15 K, 101.32 kPa, x1 = 0.4176	0.648
303.15 K, 101.32 kPa, x1 = 0.467	0.616
303.15 K, 101.32 kPa, x1 = 0.5155	0.59
303.15 K, 101.32 kPa, x1 = 0.6182	0.539
303.15 K, 101.32 kPa, x1 = 0.7243	0.497
303.15 K, 101.32 kPa, x1 = 0.8297	0.456
303.15 K, 101.32 kPa, x1 = 0.9411	0.422
308.15 K, 101 kPa, x2 = 0.1	0.439
308.15 K, 101 kPa, x2 = 0.2	0.475
308.15 K, 101 kPa, x2 = 0.3	0.506
308.15 K, 101 kPa, x2 = 0.4	0.542
308.15 K, 101 kPa, x2 = 0.5	0.58
308.15 K, 101 kPa, x2 = 0.6	0.625
308.15 K, 101 kPa, x2 = 0.8	0.756
308.15 K, 101 kPa, x2 = 0.9	0.852
313.15 K, 101.32 kPa, x1 = 0.209	0.717
313.15 K, 101.32 kPa, x1 = 0.405	0.583
313.15 K, 101.32 kPa, x1 = 0.5144	0.528
313.15 K, 101.32 kPa, x1 = 0.602	0.49
313.15 K, 101.32 kPa, x1 = 0.7994	0.423

COC(=O)CC(C)=O + CC(C)CO
viscosity [mPa·s], 101.3 kPa
Settings	x1 = 0.1046	x1 = 0.2052	x1 = 0.3095	x1 = 0.4094	x1 = 0.5075	x1 = 0.6057	x1 = 0.7026	x1 = 0.8059	x1 = 0.902
298.15 K	2.24	1.81	1.598	1.463	1.385	1.352	1.35	1.38	1.449
303.15 K	1.944	1.591	1.412	1.303	1.241	1.221	1.223	1.251	1.312
308.15 K	1.696	1.407	1.257	1.17	1.124	1.108	1.114	1.143	1.198

CCCCCCCCn1cc[n+](C)c1.[Cl-] + CCCO
viscosity [mPa·s], 101 kPa
Settings	x2 = 0.1071	x2 = 0.2407	x2 = 0.3036	x2 = 0.4887
298.15 K	7238	–	912	178.5
313.15 K	–	649	334.5	–

COC(=O)CC(C)=O + CCCO
viscosity [mPa·s], 101.3 kPa
Settings	x1 = 0.1028	x1 = 0.2021	x1 = 0.3067	x1 = 0.407	x1 = 0.5069	x1 = 0.609	x1 = 0.7057	x1 = 0.8054	x1 = 0.9036
298.15 K	1.497	1.333	1.253	1.221	1.219	1.238	1.278	1.339	1.501
303.15 K	1.337	1.213	1.128	1.102	1.104	1.123	1.163	1.217	1.295
308.15 K	1.198	1.096	1.024	1.003	1.007	1.027	1.062	1.114	1.183

COc1ccc(C=O)cc1 + CCCCOCCO
viscosity [mPa·s], 101 kPa
Settings	x1 = 0.1088	x1 = 0.2154	x1 = 0.3201	x1 = 0.4227	x1 = 0.5234	x1 = 0.6223	x1 = 0.7193	x1 = 0.8146	x1 = 0.9081
303.15 K	2.197	2.089	2.055	2.09	2.191	2.354	2.575	2.852	3.18
308.15 K	2.107	2.006	1.963	1.973	2.035	2.145	2.3	2.499	2.738
313.15 K	1.984	1.912	1.881	1.888	1.932	2.01	2.121	2.262	2.432
318.15 K	1.836	1.786	1.766	1.773	1.806	1.865	1.947	2.051	2.175

CCOC(C)=O + C1CCCCC1
viscosity [mPa·s], 101 kPa
Settings	298.15 K	308.15 K
x1 = 0.0548	0.841	0.706
x1 = 0.1549	0.765	0.63
x1 = 0.2552	0.7	0.569
x1 = 0.3558	0.643	0.52
x1 = 0.4539	0.595	0.481
x1 = 0.4998	0.575	0.466
x1 = 0.5513	0.554	0.451
x1 = 0.6549	0.516	0.426
x1 = 0.7515	0.486	0.408
x1 = 0.8531	0.458	0.395
x1 = 0.9536	0.435	0.387

CCCCCCCCCCCCCCCCCCCl + CCCCCCCCCCCC
298 K, 101.3 kPa
Settings	viscosity [mPa·s]
x2 = 0.1097	6.289
x2 = 0.2096	5.429
x2 = 0.3134	4.684
x2 = 0.4067	4
x2 = 0.5044	3.481
x2 = 0.6047	2.887
x2 = 0.6853	2.488
x2 = 0.805	2.012
x2 = 0.8971	1.662
